Data from patent publication US5773438A, “Synthetic matrix metalloprotease inhibitors and use thereof” (Glycomed Incorporated, priority 1994, dated 1998).
pKi: −log10 of the molar value.

Experiments:
[1] = biological target: T1, human skin fibroblast collagenase (Homo sapiens, UniProt P03956); test: inhibition of collagenase, synthetic thiol ester substrate, Ki (Table 1); format: biochemical
T1 construct: endogenous in cells; host or cells: human skin fibroblasts
T1 sequence (P03956 100-469): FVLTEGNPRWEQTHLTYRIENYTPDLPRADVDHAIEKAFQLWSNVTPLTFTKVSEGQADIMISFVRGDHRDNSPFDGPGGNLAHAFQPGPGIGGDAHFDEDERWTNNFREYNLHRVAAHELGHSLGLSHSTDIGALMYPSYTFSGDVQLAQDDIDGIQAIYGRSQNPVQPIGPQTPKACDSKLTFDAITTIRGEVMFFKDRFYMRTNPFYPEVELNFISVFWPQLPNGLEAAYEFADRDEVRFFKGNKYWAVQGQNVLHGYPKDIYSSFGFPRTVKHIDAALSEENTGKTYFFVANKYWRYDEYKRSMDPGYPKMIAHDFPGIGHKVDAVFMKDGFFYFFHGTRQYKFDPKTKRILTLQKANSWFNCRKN
Method: Specifically, assay of inhibition activity can be conducted as follows. Inhibitors may be assayed against crude or purified human skin fibroblast collagenase, or purified human gingival fibroblast collagenase using the synthetic thiol ester substrate at pH 6.5 exactly as described by Kortylewicz & Galardy, J Med Chem (1990) 33:263-273, at a collagenase concentration of 1-2 nM. The candidate inhibitors are tested for their ability to inhibit crude collagenase and gelatinase from human skin fibroblasts, crude collagenase and gelatinase from purulent human neutrophils in this assay.

[2] = biological target: T2, Natural human 72kD gelatinase (Homo sapiens, UniProt P08253); test: inhibition of 72kD gelatinase (Table 2); format: biochemical; conditions: read-out: 72kD G inhibitory activity
T2 sequence (P08253 110-660): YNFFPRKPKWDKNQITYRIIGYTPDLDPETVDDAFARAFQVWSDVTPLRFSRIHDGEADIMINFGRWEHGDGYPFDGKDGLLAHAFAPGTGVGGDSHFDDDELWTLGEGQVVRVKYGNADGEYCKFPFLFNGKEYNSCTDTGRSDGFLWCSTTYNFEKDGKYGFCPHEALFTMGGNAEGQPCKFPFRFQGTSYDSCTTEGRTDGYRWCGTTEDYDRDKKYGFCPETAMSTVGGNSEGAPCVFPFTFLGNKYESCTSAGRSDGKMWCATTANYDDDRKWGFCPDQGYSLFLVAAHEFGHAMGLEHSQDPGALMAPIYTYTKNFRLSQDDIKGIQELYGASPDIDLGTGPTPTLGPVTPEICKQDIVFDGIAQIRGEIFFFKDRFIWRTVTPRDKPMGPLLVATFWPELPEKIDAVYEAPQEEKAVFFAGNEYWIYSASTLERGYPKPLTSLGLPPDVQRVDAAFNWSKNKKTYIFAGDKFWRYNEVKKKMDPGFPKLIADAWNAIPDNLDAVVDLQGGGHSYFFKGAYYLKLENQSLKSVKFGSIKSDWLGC
Method: (§1) Specifically, assay of inhibition activity can be conducted as follows. […] Assays for inhibition of human stromelysin are conducted as described by Teahan, J., et al., Biochemistry (1989) 20:8497-8501.
(§2) Assay of inhibition activity can be conducted using a fluorogenic substrate developed by Knight et al., FEBS Letters (1992) 296:263. This method uses a fluorometer to determine the rate of substrate hydrolysis in a 96 well plate format. Reaction rates are determined at several substrate concentrations, and multiple inhibitor levels. The data are analyzed by Lineweaver-Burk, Dixon and Henderson plot analyses (Enzyme Kinetics (1975) Irwin Segal (John Wiley & Sons, Inc., publishers), and as described by Henderson, Biochem J. (1972) 127:321). The substrate levels range from 10-30μM. […] Inhibitors may be assayed against purified 72 kD gelatinase, 92 kD gelatinase, neutrophil collagenase, stromelysin or other proteases as appropriate. The enzymes are activated at 37° C. with APMA (4-aminophenylmercuric acetate), and the assays are carried out at room temperature.

Stromelysin = Stromelysin (Homo sapiens, UniProt P08254); test: inhibition of stromelysin (Table 2); format: biochemical; conditions: read-out: Strom inhibitory activity
Method: as §1, §2

[3] = biological target: Recombinant neutrophil collagenase (Homo sapiens, UniProt P22894); test: inhibition of recombinant neutrophil collagenase (Table 2); format: biochemical; conditions: read-out: NC inhibitory activity
Method: as §1, §2

[4] = biological target: T3, Human gingival fibrblast collagenase (Homo sapiens, UniProt P03956); test: inhibition of human gingival fibroblast collagenase (Table 2); format: biochemical; conditions: read-out: HGFC inhibitory activity
T3 construct: endogenous in cells; host or cells: human gingival fibroblasts
T3 sequence (P03956 100-469): T1 sequence (P03956 100-469)
Method: as §1, §2

[5] = system: protease activity of chronic wound fluid; test: Azocoll assay of protease activity in chronic wound fluid; format: biochemical, human; conditions: FIG. 7; for inhibition of protease activity of chronic wound fluid: highest concentration (800 μg/ml)
Method: Fluids were collected from 3 types of human wounds termed closed spontaneously healing wounds, open slowly healing wounds, and open chronic wounds. In the first category were fluids collected from the chest wall of women following mastectomy surgery. Fluids from non-infected wounds that were left open for valid surgical reasons were considered open slowly healing wounds. An occlusive dressing was placed over the wound bed, and fluids were collected after 2-6 hours of occlusion. Finally, fluids were also collected from chronic open wounds by covering the wounds with occlusive dressings. Wounds were considered to be chronic if they were not clinically infected and had been open and not healing for more than 4 weeks.
The various wound fluids were assayed for matrix metalloproteinase activity using the Azocoll assay essentially as described by Chavira, et al., Analytic Biochemistry (1984), 136:446.
The fluids were centrifuged, and the supernatants filtered using a 0.45μ sterile Gelman filter. The filtrates were stored frozen at -80° C. until tested for protease activity.
The effects of four inhibitors on the protease activity present in wound fluids were determined. The inhibitors were: compounds
Stock solutions of the four inhibitors were all prepared at a concentration of 800 μg/ml. Due to different solubility properties of the inhibitors, different techniques were utilized. […] S1209 was dissolved in 1% DMSO then dissolved in 10 mM citrate, pH 5.5, containing 0.05% methyl cellulose. 39A was dissolved in propylene glycol (to give a final concentration of 2.4%) then dissolved in 1 mM CaCl2, 50 mM Tris-Cl, pH 7.8. 21A was dissolved in propylene glycol (2.4%) methyl cellulose (0.05%) and 10 mM citrate, pH 8.
The protease substrate, Azocoll, was obtained from Sigma Chemical Corporation and it is a substrate for collagenase/gelatinase-like metalloproteinase enzymes and general proteases. Clostridium histolyticum collagenase (the crude form of the enzyme) was from Worthington Biochemicals. General chemicals including TRIS buffer, DMSO, and CaCl2 were from Sigma Chemical Corporation.
Briefly, 900 μl of the Azocoll substrate suspension in buffer ([…] in 50 mM TRIS, pH 7.8, 1 mM CaCl2) was added to 1.5 ml microcentrifuge tubes then 50 μl of inhibitor (or buffer) and 50 μl of chronic wound fluid (or collagenase standard) were added to the reaction tube. The reaction tubes were placed at 37° C. in a shaker that inverted the tubes 30 times per minute. After 24 hours of incubation, the reaction tubes were centrifuges at 10,000 X g and the absorbance of the supernatant solution was measured at 520 nm with a Milton-Roy spectrophotometer. Proteolysis of Azocoll substrate generates soluble colored fragments from the insoluble Azocoll substrate. Wound fluid samples were incubated alone or with the inhibitors. Controls included incubation of the Azocoll substrate with the assay buffer to measure spontaneous degradation of the substrate. A standard curve for digestion of the Azocoll substrate was generated by incubation of the Azocoll with crude bacterial collagenase. Protease levels were expressed as net μg of collagenase equivalent per ml of chronic wound fluid. In the figures, certain of the wound fluids are referred to by an individual name.
For these experiments, due to the different solubility properties of the inhibitors, different techniques were utilized. […] S1209 was dissolved in 1% DMSO then dissolved in 10 mM citrate, pH 5.5, containing 0.05% methyl cellulose. 39A was dissolved in propylene glycol (to give a final concentration of 2.4%) then dissolved in 1 mM CaCl2, […] Tris-Cl, pH 7.8. 21A was dissolved in propylene glycol (2.4%) methyl cellulose (0.05%) and 10 mM citrate, pH 8.

[6] = system: PdiBu-Induced Epidermal Hyperplasia; test: PdiBu-induced epidermal hyperplasia mouse model (psoriasis); format: in vivo, hairless mice; conditions: topical
Method: The phorbol ester, PdiBu (20 nmol in 20 μl if acetone) was applied to both ears of hairless mice (h/h) (approximately 1 cm^2 each). The test compounds (in total volume of 20 μl) were then applied to the right ear immediately (15 to 30 min) following PdiBu. The left ear of each animal received an equivalent amount (20 μl) of vehicle. Test compounds (and vehicle) were reapplied at 6 and 18 hours following PdiBu. Treatment times were staggered to allow exact time intervals to be obtained. At 30 hours after PdiBu, animals were anesthetized, and ear thickness values were obtained using a microcaliper. The weights of punch biopsies (6mm) were then obtained. Histology was performed on selected samples taken at 30 hours.
Left ear in each animal served as vehicle-treated controls (PdiBu+ETOH). Thus, the controls for this series include: 1) Untreated controls; 2) PdiBu plus vehicle alone (included for each mouse tested); 3) PdiBu plus AHA; 4) PdiBu plus Lidex® as a positive control.

Chain of Stromelysin (P08254 100-477): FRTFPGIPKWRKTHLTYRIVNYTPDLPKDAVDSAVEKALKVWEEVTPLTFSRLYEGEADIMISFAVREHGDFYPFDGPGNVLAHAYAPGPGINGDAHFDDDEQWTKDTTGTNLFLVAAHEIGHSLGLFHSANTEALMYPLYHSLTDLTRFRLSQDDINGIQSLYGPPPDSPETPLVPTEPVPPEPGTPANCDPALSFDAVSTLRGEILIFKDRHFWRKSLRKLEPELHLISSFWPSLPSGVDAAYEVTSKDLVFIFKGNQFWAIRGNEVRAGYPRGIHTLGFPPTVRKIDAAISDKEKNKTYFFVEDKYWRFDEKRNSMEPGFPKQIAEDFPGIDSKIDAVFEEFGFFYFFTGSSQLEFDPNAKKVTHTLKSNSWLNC
Chain of Recombinant neutrophil collagenase (P22894 101-467): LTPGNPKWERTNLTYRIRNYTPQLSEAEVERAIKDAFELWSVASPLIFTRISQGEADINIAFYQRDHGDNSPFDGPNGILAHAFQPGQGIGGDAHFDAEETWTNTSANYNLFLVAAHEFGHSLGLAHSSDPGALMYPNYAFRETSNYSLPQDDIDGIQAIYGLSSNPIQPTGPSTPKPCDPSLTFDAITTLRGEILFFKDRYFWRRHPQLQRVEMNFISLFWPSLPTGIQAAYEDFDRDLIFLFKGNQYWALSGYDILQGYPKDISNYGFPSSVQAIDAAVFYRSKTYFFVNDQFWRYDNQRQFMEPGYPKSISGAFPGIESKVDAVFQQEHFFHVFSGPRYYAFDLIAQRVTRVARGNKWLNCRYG

## CNC(=O)[C@H](Cc1c[nH]c2ccccc12)NC(=O)C1CCCCC1C(=O)NO (mixture of isomers) [29A,B, N-[(±)cis-2-(N'-hydroxyamidocarbonyl)-cyclohexylcarbonyl]-L-tryptophan methylamide]
[1]
  pKi: < 5.00

## CNC(=O)[C@H](Cc1c[nH]c2ccccc12)NC(=O)[C@@H]1CCCC[C@@H]1C(=O)O (mixture of isomers) [Compound 35, N-[(+)cis-2-carboxy-cyclohexylcarbonyl]-L-tryptophan methylamide]
[1]
  pKi: < 5.00

## CNC(=O)[C@H](Cc1c[nH]c2ccccc12)NC(=O)[C@@H]1CCCC[C@H]1C(=O)O (mixture of isomers) [Compound 36, N-[(+)trans-2-carboxy-cyclohexylcarbonyl]-L-tryptophan methylamide]
[1]
  pKi: < 5.00

## CNC(=O)[C@H](Cc1c[nH]c2ccccc12)N(C)C(=O)C(CC(=O)NO)CC(C)C (single isomer, unassigned) [Compound 9A, N-[2-isobutyl-3-(N'-hydroxyamidocarbonyl)-propanoyl]-N-methyl-L-tryptophanmethylamide]
[1]
  pKi: 6.30
[2]
  pKi: 7.49
Stromelysin
  pKi: < 6.00
[3]
  pKi: 7.54
[4]
  pKi: 8.30

## CNC(=O)[C@H](Cc1ccc2ccccc2c1)NC(=O)C(CC(=O)NO)CC(C)C (single isomer, unassigned) [Compound 11A, N-[2-isobutyl-3-(N-hydroxyamidocarbonyl)-propanoyl]-L-3-(2-naphthyl)-alanine methylamide]
[1]
  pKi: 7.82
[4]
  pKi: 9.52

## CC(C)CC(CC(=O)NO)C(=O)N[C@@H](Cc1c[nH]c2ccccc12)C(=O)NCCO (single isomer, unassigned) [Compound 13A, N-[2-isobutyl-3-(N'-hydroxyamidocarbonyl)-propanoyl]-L-tryptophan 2-hydroxyethylamide]
[1]
  pKi: 7.70
[4]
  pKi: 9.00

## COC(=O)CC(CC(C)C)C(=O)N[C@@H](Cc1c[nH]c2ccccc12)C(=O)N[C@@H](C)c1ccccc1 (single isomer, unassigned) [Compound 20A]
[4]
  pKi: 9.70

## CC(C)CC(CC(=O)NO)C(=O)N[C@@H](Cc1c[nH]c2ccccc12)C(=O)N[C@@H](C)c1ccccc1 (single isomer, unassigned) [Compound 21A]
[1]
  pKi: 8.52
[5]
  inhibition of protease activity of chronic wound fluid: 94%

## CC(C)CC(CC(=O)O)C(=O)N[C@@H](Cc1c[nH]c2ccccc12)C(=O)NCC(=O)O (single isomer, unassigned) [Compound 34A, N-[N-(2-Isobutyl-3-carboxypropanoyl)-L-tryptophanyl]glycine]
[1]
  pKi: < 5.00

## CC(C)CC(CC(=O)O)C(=O)N[C@@H](Cc1c[nH]c2ccccc12)C(=O)NCC(=O)O (single isomer, unassigned) [Compound 34B, N-[N-(2-Isobutyl-3-carboxypropanoyl)-L-tryptophanyl]glycine]
[1]
  pKi: < 5.00

## CC(C)CC(CC(=O)NO)C(=O)N[C@@H](Cc1c[nH]c2ccccc12)C(=O)N1CCCCC1 (stereo partly drawn) [17A,B, N-[2-isobutyl-3-(N'-hydroxyamidocarbonyl)-propanoyl]-L-tryptophan piperidinamide]
[1]
  pKi: 6.70

## CNC(=O)[C@H](Cc1c[nH]c2ccccc12)NC(=O)[C@H](CC(=O)NO)CC(C)C [Compound 5B, N-[D,L-2-isobutyl-3-(N'-hydroxycarbonylamido)-propanoyl]-tryptophan methylamide]
Stromelysin
  pKi: < 6.00

## CCCCCNC(=O)[C@H](Cc1c[nH]c2ccccc12)NC(=O)C(CC(=O)NO)CC(C)C (stereo partly drawn) [Compound 15A, N-[2-isobutyl-3-(N'-hydroxyamidocarbonyl)-propanoyl]-L-tryptophan amylamide]
[1]
  pKi: 7.52
[4]
  pKi: 9.52

## CC(C)CC(CC(=O)NO)C(=O)N[C@@H](Cc1c[nH]c2ccccc12)C(=O)O (stereo partly drawn) [Compound 31A, N-[2-Isobutyl-3-(N'-hydroxyamidocarbonyl)-propanoyl]-L-tryptophan]
[1]
  pKi: 6.70

## CC(C)CC(CC(=O)O)C(=O)N[C@@H](Cc1c[nH]c2ccccc12)C(=O)NCCCCCCN (stereo partly drawn) [Compound 32A, N-(D,L-2-Isobutyl-3-carboxypropanoyl)-L-tryptophan (6-aminohexyl-1)amide]
[1]
  pKi: < 5.00

## CC(C)C[C@H](CC(=O)O)C(=O)N[C@@H](Cc1c[nH]c2ccccc12)C(=O)N[C@@H](C)c1ccccc1 [Compound 39A, N-(2R-2-Carboxymethyl-4-methylpentanoyl)-L-tryptophan (S)-methylbenzyl amide]
[5]
  effect on proteolytic degradation of Azocoll by chronic wound fluid: significantly less potent that 5A, 21A, or S1209
  inhibition of protease activity of chronic wound fluid: 23%
[5]; 0.8 μg/ml
  increase in protease activity of chronic wound fluid: 30%
[5]; 8 μg/ml
  increase in protease activity of chronic wound fluid: 13%

## CC(C)C[C@H](CC(=O)O)C(=O)N[C@@H](Cc1c[nH]c2ccccc12)C(=O)NCCN1CCOCC1 [Compound 51]
[4]
  pKi: 7.49

## CC(C)C[C@H](CC(=O)O)C(=O)N[C@@H](Cc1c[nH]c2ccccc12)C(=O)NCCc1ccccc1 [Compound 58, N-[2-Isobutyl-3-hydroxycarbonylpropanoyl]-L-tryptophan-2(phenyl)ethylamide]
[2]
  pKi: 7.10
Stromelysin
  pKi: 4.98
[3]
  pKi: 7.59

## CC(C)C[C@H](CC(=O)O)C(=O)N[C@@H](Cc1c[nH]c2ccccc12)C(=O)NCCc1ccc(S(N)(=O)=O)cc1 [Compound 59]
[2]
  pKi: 6.58
Stromelysin
  pKi: 4.42
[3]
  pKi: 7.07

## CC(=O)OCC(=O)[C@@]12OC(C)(C)O[C@@H]1C[C@H]1[C@@H]3C[C@H](F)C4=CC(=O)C=C[C@]4(C)[C@@]3(F)[C@@H](O)C[C@@]12C [Lidex, fluocinonide, reference compound]
[6]
  effect on PdiBu-induced ear thickness: significantly inhibited
  effect on PdiBu-induced increase in punch biopsy weight: significantly inhibited
